Measurements reported in patent US4870002A, “Method of prevention of oxidative injury to cells” (priority 1985, dated 1989).
Like-named read-outs stand apart in the source and are kept apart here.

How the values were obtained:
porcine RBCs = assay: Nonspecific binding of Lu-BSA to porcine RBCs (base-activated chemiluminescence); assay type: cell-based, pig
Method: Blood was collected from Landrace-Duroc swine from a closed herd. Pigs from this herd had previously expressed episodes of porcine stress syndrome (malignant hyperthermia) following halothane anesthesia. The blood was collected into acidic citrated dextrose solution in standard blood bags. The blood was diluted 1:10 in phosphate (0.1M) buffered saline (PBS), pH 7.4, in 10 ml aliquots, centrifuged in a clinical centrifuge, and the erythrocytes were resuspended in fresh PBS. The cells were stored at 4° C. until used in the various assays. The post-collection chronological age of the RBCs used for a particular assay is noted in the results for each assay. The cells were counted in an automated cell counter (Coulter ZBI, Coulter Electronics, Inc., Hialeah, Fla. 33010). Nonspecific binding of Lu-BSA to porcine RBCs was measured following treatment with hydrogen peroxide, pyruvate, and/or 3-amino-L-tyrosine at 4°, 37°, or 45° C. The exposure times for those agents were 15 min, 30 min, or 72 hours. The reagents were removed by centrifugation. Three binding protocols were followed: (1) 0.25 ml of 1:20 RBCs (19 days post collection) were incubated with 0.25 ml of 1 mg/ml Lu-BSA in PBS, pH 6.9, for 30 min at 37° C. and washed (Table 1); (2) 0.05 ml of packed RBCs (less than 24 hours post collection) were resuspended in 0.2 ml of the Lu-BSA solution and incubated overnight at 4° C. […] The cells in all three protocols were washed once in PBS, pH 7.4, and resuspended in PBS to final dilutions of 1:20 for (1) and 1:30 for (2) and (3). Following this preparation, 100 μl of each cell suspension were added to 500 μl of PBS, pH 7.4, in a scintillation vial. The vial was placed in the photometer and the solution was activated by the addition of 100 μl 0.1N NaOH. The settings for the photometer were as previously described for the Con A-Lu-BSA.

pig RBCs = assay: Thermal fragility / hemolysis of RBCs (410 nm absorbance of supernatant); assay type: cell-based; conditions: for thermal hemolysis, 410 nm optical absorbance, Hot air / thermal hemolysis, 410 nm optical absorbance, Microwave exposed / 410 nm optical absorbance of 1:2 diluted supernatant, Hot air / 410 nm optical absorbance of 1:2 diluted supernatant, Microwave exposed: 43° C. (10 min); for thermal hemolysis, 410 nm optical absorbance, Hot air / thermal hemolysis, 410 nm optical absorbance, Microwave exposed: Con A-Lu-BSA labeled RBCs 11-14 days post collection; for effect on thermal hemolysis, in words: 48° C. for 30 min; for 410 nm optical absorbance of 1:2 diluted supernatant, 4° C. / 410 nm optical absorbance of 1:2 diluted supernatant, Hot air / 410 nm optical absorbance of 1:2 diluted supernatant, Microwave exposed: RBCs 6 days post collection
Method: Blood was collected from Landrace-Duroc swine from a closed herd. Pigs from this herd had previously expressed episodes of porcine stress syndrome (malignant hyperthermia) following halothane anesthesia. The blood was collected into acidic citrated dextrose solution in standard blood bags. The blood was diluted 1:10 in phosphate (0.1M) buffered saline (PBS), pH 7.4, in 10 ml aliquots, centrifuged in a clinical centrifuge, and the erythrocytes were resuspended in fresh PBS. The cells were stored at 4° C. until used in the various assays. The post-collection chronological age of the RBCs used for a particular assay is noted in the results for each assay. The cells were counted in an automated cell counter (Coulter ZBI, Coulter Electronics, Inc., Hialeah, Fla. 33010).
Red blood cells were heated in 1 or 1.5 ml aliquots of PBS pH 7.4 with or without additional reagents in cellulose nitrate or polypropylene centrifuge tubes. Two concentrations of cells were used as indicated in the results. Heating was accomplished by three methods: microwave radiation, hot air, or water bath heating. The microwave device was a circularly polarized waveguide powered by a 1-kw S-band (microwave) amplifier (Model 10704,MCL, Inc., La Grange, Ill.). The heating of the sample at a specific absorption rate (SAR) of 91±4 W/kg (continuous wave (CW), 2450MHz) was offset by an air-cooling system that maintained a constant temperature. This system has been previously described in greater detail in Kiel, J. L. and D. N. Erwin, "Microwave and thermal interactions with oxidative hemolysis", 16 Physiol. Chem. Phys. Med. NMR, 317-323 (1984), which reference is hereby incorporated in its entirety by this specific reference thereto. […] The temperature was held within ±0.2° C. by this system. In the absence of microwave radiation, the temperature was held constant by hot air alone. The microwave/hot air system was brought to 37° C. for 15 min. prior to raising the temperature to 43° C. by microwaves or hot hot air. The water bath heating held the temperature within ±0.5° C. Heating times were 10, 15, or 30 min. The temperatures examined were 37°, 43°, 45°, or 48°.
Hemoglobin released into the supernatants of the heated cells were determined by the method described in the above-incorporated reference of Kiel and Erwin (1984). In brief, the supernatants were collected following centrifugation in a clinical centrifuge, diluted 1:2 in PBS, pH 7.4, and the optical absorbances at 410 nm were determined in a dual beam spectrophotometer. Pyruvate, lactate, inosine, hydrogen peroxide, mimosine, and/or 3-amino-L-tyrosine were added to the samples as indicated in Tables 1-3 and 9-12. All reagents were diluted in PBS and the final volumes of the samples were constant.

[1] = tested on: Con A-Lu-BSA labeled pig RBCs; assay: Chemiluminescence of Con A-Lu-BSA labeled pig RBCs with exogenous hydrogen peroxide; assay type: cell-based
Method: The luminol-bovine serum albumin (Lu-BSA) complex was made by mixing 2 mg luminol (5-amino-2, 3-dihydrophthalazine-1,4-dione), 0.2 ml of 2 mg BSA/ml PBS (pH 6.9), and 1.6 ml of PBS, pH 6.9. The preparation was then passed through a 0.22 μm nitrocellulose filter to remove insoluble luminol. Next, 0.2 ml of 2 mg Con A/ml of PBS, pH 6.9, was added to the filtrate. After gentle mixing, 10 μl of 25% glutaraldehyde were added. The solution was incubated in the refrigerator for 1 hour. To stop the conjugation, 100 mg of glycine was added to the solution. The solution was then pressed through a 48 ml column of dextran gel filtration beads equilibrated with PBS, pH 6.9. The gel exclusion size was greater than 5000 for globular molecules. The fractions were collected and tested for luminescent labeling activity.
One ml of supernatant of each 10 ml aliquot of 1:20 diluted RBCs was replaced with 1 ml of Con A-Lu-BSA solution as previously described. The preparation was incubated for 15 min. at 37° C. in a water-jacketedcell culture incubator. The cells were then pelleted in a clinical centrifuge, resuspended in PBS, and washed in the same manner two additional times. The washed cells were maintained at 4° C. until used the same day of preparation.
Following exposure to chemical or physical stressors, 100 μl of the RBC suspension was added to 500 μl of PBS, pH 7.4, containing 0.3% hydrogen peroxide, in a scintillation vial. To activate the sample, 100 μl of 0.1N NaOH were added to the vial in place in an ATP photometer (Integrating ATP Photometer Model 3000, Science Applications, San Diego, California 92121) The photometer was set to a dark count of 1 count/30 second at a sensitivity of 600 at room temperature (approximately 23° C.). All counts followed a 5 second delay period to allow for stabilization of the photomultiplier. The counts are reported as counts/30 sec.
All essays were run at room temperature. The post-collection age of those cells was 11-18 days and the cells were used the day of labeling. […] Pyruvate (1.43 mM), an autoxidizable substrate, doubled the CL of labeled cells.

peroxidase = assay: 3-aminotyrosine oxidation by peroxidase; assay type: biochemical
[2] = tested on: Con A-Lu-BSA labeled pig RBCs; assay: Chemiluminescence of Con A-Lu-BSA labeled pig RBCs with exogenous hydrogen peroxide; assay type: cell-based; conditions: Sus scrofa, Erythrocyte, 1.43 mM, no cells; read-out: Percent control
[3] = tested on: 20-methylcholanthrene induced tumors; conditions: cited from earlier work
[4] = in vivo; cited from earlier work
[5] = 1.43 mM, labeled RBCs 11-18 days post collection, room temperature
[6] = Sus scrofa, Erythrocyte, 1.43 mM, read-out: Percent control

OO [Hydrogen peroxide, reference compound]
CL (30 s) (porcine RBCs; Lu-BSA binding, pretreatment 44 mM, 37° C., 15 min, RBCs 19 days post collection): 558 ± 157 counts/30 s
activation at 44000 µM (porcine RBCs; Sus scrofa, 0.25 h, 44 mM, 15 min, 37° C. (hot air), 1.4×10^9 RBCs/ml, read-out: increase in bound Lu-BSA compared to cells maintained in PBS): 721%
activation at 11700 µM (porcine RBCs; Sus scrofa, 0.5 h, hydrogen peroxide 11.7 mM, 37° C., 30 min, vs 4° C. control, read-out: Percent difference from control): 254%
CL (30 s) (porcine RBCs; hydrogen peroxide 11.7 mM, 37° C., 30 min, RBCs less than 24 hours post collection): 1346 ± 386 counts/30 s

OC[C@H]1O[C@@H](n2cnc3c(O)ncnc32)[C@H](O)[C@@H]1O [Inosine]
benefit of storing RBCs in reagent in respect to thermal fragility, in words (pig RBCs; 10 mM): no significant benefit
thermal hemolysis, 410 nm optical absorbance, Hot air (pig RBCs; 10 mM): 0.597 ± 0.080
thermal hemolysis, 410 nm optical absorbance, Microwave exposed (pig RBCs; 10 mM): 0.578 ± 0.045
effect on CL of labeled cells, in words ([1]; 1.43 mM): small but significant increase
CL (30 sec) [1, 5]: 34,972 ± 2,732 counts/30 sec
activity at 1430 µM [1, 6]: 115%

NC(Cn1ccc(=O)c(O)c1)C(=O)O [L--mimosine, L-mimosine]
Percent difference from controls (corrected), 4° C. (pig RBCs; 340 μM, 48° C. 30 min): 95.1%
Percent difference from controls (corrected), 48° C. (pig RBCs; 340 μM, 48° C. 30 min): 21.5%
410 nm absorbance, Actual (pig RBCs; 340 μM, 48° C. 30 min, RBCs 20 days post collection, 1.4×10^9 per ml): 0.965 ± 0.026
410 nm absorbance, Corrected (pig RBCs; 340 μM, 48° C. 30 min, corrected for RBC dilution): 0.724
effect on thermal hemolysis, in words (pig RBCs; 340 μM, listed as Mimosine): had no effect
effect on thermal hemolysis, in words (pig RBCs; 340 μM, listed as mimosine): failed to protect
CL (30 sec) ([1]; 630 μM): 8,555 ± 1,044 counts/30 sec
level of CL below natural RBC CL ([1]; 630 μM): 36%
effect of prewashing labeled cells on CL, in words ([1]; 5 mM, 30 min at room temperature): no significant effect
activity at 630 µM ([1]; Sus scrofa, Erythrocyte, 630 μM, read-out: Percent control): 28%
activity at 5000 µM ([1]; Sus scrofa, Erythrocyte, pretreatment 5 mM, 30 min, washed before activation, read-out: Percent control): 94%
inhibition at 630 µM ([1]; Sus scrofa, 630 μM, read-out: inhibition of CL): 72%
CL (30 sec) ([1]; pretreatment 5 mM, 30 min, washed before activation): 28,517 ± 2,591 counts/30 sec
mode of inhibition, in words (peroxidase): uncompetitive inhibitor

CC(O)C(=O)O (centres unmarked) [Lactate]
change in hemolysis, in words (pig RBCs; 10 mM, 43° C., RBCs 6 days post-collection): insignificant increases
410 nm optical absorbance of 1:2 diluted supernatant, 4° C. (pig RBCs; 10 mM): 0.362
thermal hemolysis, 410 nm optical absorbance, Hot air (pig RBCs; 10 mM): 0.667 ± 0.04
thermal hemolysis, 410 nm optical absorbance, Microwave exposed (pig RBCs; 10 mM): 0.643 ± 0.02
410 nm optical absorbance of 1:2 diluted supernatant, Hot air (pig RBCs; 10 mM): 0.440 ± 0.078
410 nm optical absorbance of 1:2 diluted supernatant, Microwave exposed (pig RBCs; 10 mM): 0.424 ± 0.014
effect on CL of labeled cells, in words ([1]; 1.43 mM): insignificant increases
CL (30 sec) [1, 5]: 30,930 ± 3,399 counts/30 sec
activity at 1430 µM [1, 6]: 102%

CC(=O)C(=O)O [Pyruvate]
activity at 1430 µM [2]: 1.4%
410 nm optical absorbance of 1:2 diluted supernatant, 4° C. (pig RBCs; 10 mM): 0.363
thermal hemolysis, 410 nm optical absorbance, Hot air (pig RBCs; 10 mM): 0.646 ± 0.02
thermal hemolysis, 410 nm optical absorbance, Microwave exposed (pig RBCs; 10 mM): 0.646 ± 0.07
410 nm optical absorbance of 1:2 diluted supernatant, Hot air (pig RBCs; 10 mM): 0.427 ± 0.015
410 nm optical absorbance of 1:2 diluted supernatant, Microwave exposed (pig RBCs; 10 mM): 0.374 ± 0.055
spontaneous hemolysis reading (pig RBCs; pyruvate 1.33 mM, 37° C., RBCs 72 hours post collection): 0.362±0.016
CL (30 s) (porcine RBCs; 1.33 mM, 45° C., 30 min): 1203 ± 266 counts/30 s
CL (counts/30 s) (porcine RBCs; 1.33 mM, 30 min at 37° C., RBCs 72 hours post collection): 2348 ± 646 counts/30 s
activation at 1330 µM (porcine RBCs; Sus scrofa, 1.33 mM during exposure to 45° C., read-out: increase in Lu-BSA binding over the 45° C. exposure alone): 101%
activation at 1330 µM (porcine RBCs; Sus scrofa, 0.5 h, 1.33 mM, 45° C., 30 min, vs 4° C. control, read-out: Percent difference from control): 216%
activation at 1330 µM (porcine RBCs; Sus scrofa, 0.5 h, 1.33 mM, 30 min at 37° C., read-out: Percent difference from control): 166%
fold induction at 1330 µM (porcine RBCs; Sus scrofa, 0.5 h, 1.33 mM, 30 min at 37° C., read-out: increase of Lu-BSA binding): 2.7
CL (30 sec) ([1]; 1.43 mM, no cells): 420 counts/30 sec
CL (30 sec) [1, 5]: 60,732 ± 3,258 counts/30 sec
activity at 1430 µM [1, 6]: 200%

S=P(N1CC1)(N1CC1)N1CC1 [thio-TEPA, reference compound]
effect on tumor growth, in words ([3]; agent alone): Neither myeloperoxidase nor thio-TEPA alone were effective

myeloperoxidase
effect on tumor growth, in words ([3]; agent alone): Neither myeloperoxidase nor thio-TEPA alone were effective
effect on tumor growth, in words ([3]; myeloperoxidase injected in combination with thio-TEPA): significant reduction in tumor growth
biological half-life [4]: about 24 hours
